Test results taken from PMC12153055 (Organometallics, 2025).

Assays:
[1] = system: 5′-biotinylated dsDNA oligomer (DNA, duplex) TGTAATCGTAGGTTGGTCCCATCACCCACC/GGTGGGTGATGGGACCAACCTACGATTACA; assay: SPR biosensor kinetics, immobilised DNA; settings: PBS buffer; monoexponential fit, single site
[2] = system: A2780cis cisplatin-resistant ovarian cancer cells; assay: MTT cytotoxicity assay, A2780cis cells; type: cell-based, human; settings: 72 h exposure, mean ± SD of three experiments
Method: (§1) The stability of [1]-Cl-[4]-Cl was evaluated in aqueous phosphate-buffered solution (PBS, pH 7.4) using UV–visible spectroscopy. […] The cytotoxicity of the compounds was measured according to a standard MTT assay against human breast cancer (MCF7 and MCF7CR) and ovarian cancer (A2780 and A2780cis) cell lines, and also nontumorigenic MCF10A and human embryonic kidney HEK293T cells (Table ).
(§2) All cell lines were grown in a humidified 5% CO2 environment at 37 °C in dedicated media. Growth media comprised minimum essential medium (MEM) supplemented with 10% FBS, 1% sodium pyruvate, antibiotics, and antimycotic agents for MCF7. MCF10A cells were cultured in a DMEM/F12 Ham’s mixture supplemented with 5% equine serum, 20 ng/mL EGF, 10 μg/mL insulin, […], antibiotics, and antimycotics. MCF7-CR cells were grown in minimum essential medium (MEM), 10% FBS supplemented with 0.1 mg/mL cisplatin, sodium pyruvate, antibiotics, and antimycotics. A2780 and A2780cis cells were cultured in RPMI 1640 GlutaMAX, and HEK293T cells were cultured in DMEM GlutaMAX medium containing 10% heat-inactivated FBS and antibiotics. The effect exerted on cell viability by the compounds was determined using the 3-(4,5-dimethylthiazol-2-yl)-2,5-diphenyltetrazolium bromide (MTT) assay. After individual treatments with 0–100 μM of the compound for 72 h, MTT was added to the culture media at a final concentration of 0.5 mg/mL and incubated for 2 h at 37 °C. Cisplatin was used as a positive control. The medium was replaced with 100 μL of DMSO, and after 10 min, the optical density was recorded at 550 nm on a microplate reader. At least six cultures were used for each data point. Chemicals (Merck-Sigma, Milan, Italy) and plasticware (Corning, Milan, Italy) were cell culture grade.

[3] = system: HEK293T human embryonic kidney cells; assay: MTT cytotoxicity assay, HEK293T cells; type: cell-based; settings: 72 h exposure, mean ± SD of three experiments
Method: as §1, §2

[4] = system: MCF7 human breast adenocarcinoma cells; assay: MTT cytotoxicity assay, MCF7 cells; type: cell-based; settings: for IC50: MTT, 72 h exposure, mean ± SD of three experiments; for SI MCF7 MCF10A: selectivity index, values equal IC50 MCF10A / IC50 MCF7
Method: as §1, §2

[5] = system: MCF7-CR cisplatin-resistant breast cancer cells; assay: MTT cytotoxicity assay, MCF7CR cells; type: cell-based, human; settings: 72 h exposure, mean ± SD of three experiments
Method: as §1, §2

[6] = system: A2780 human ovarian carcinoma cells; assay: MTT cytotoxicity assay, A2780 cells; type: cell-based; settings: for IC50: MTT, 72 h exposure, mean ± SD of three experiments; for SI A2780 HEK293T: selectivity index, values equal IC50 HEK293T / IC50 A2780
Method: as §1, §2

[7] = target: 20S proteasome trypsin-like activity (Homo sapiens, UniProt Q99436); assay: Isolated 20S proteasome, trypsin-like activity (Z-Leu-Ser-Thr-Arg-AMC); type: biochemical; settings: for IC50: 0–100 μM, 1 h, 37 °C, pH 8.0
Method: (§3) Proteasome inhibition by the compounds was evaluated with respect to three major activities of the 20S proteasome, namely, chymotrypsin-like, trypsin-like, and caspase-like activities.
(§4) The effect of the compounds on the activity of the isolated 20S proteasome was tested using specific synthetic fluorogenic peptide substrates (Suc-Leu-Leu-Val-Tyr-AMC, Z-Leu-Ser-Thr-Arg-AMC, and Z-Leu-Leu-Glu-AMC for chymotrypsin-like, trypsin-like, and peptidyl glutamyl peptide hydrolase activity, respectively) as reported elsewhere. Briefly, individual mixtures consisting of the compounds (0–100 μM), 1 μg of isolated 20S proteasome, the specific substrate, and 50 mM Tris–HCl pH 8.0 up to a final volume of 100 μL were incubated at 37 °C, and after 1 h, the fluorescence measurements of the hydrolyzed AMC were recorded on a SpectraMax Gemini XPS microplate reader (λexc = 365 nm, λem = 449 nm).

[8] = system: MCF10A nontumorigenic cells; assay: MTT cytotoxicity assay, MCF10A cells; type: cell-based, human; settings: 72 h exposure, mean ± SD of three experiments
Method: as §1, §2

dsDNA oligomer = assay: SPR biosensor binding to surface-anchored dsDNA oligomer; settings: surface-blocked DNA oligomer; for Kd: equilibrium dissociation constant
Method: The DNA binding ability of curcuminoid ligands and their complexes was evaluated by using a Surface plasmon resonance (SPR) biosensor. The monoexponential nature of binding kinetics for all the compounds is consistent with the presence of a single high-affinity site on DNA (Figure ).
The binding kinetics/affinities of the molecules of interest for DNA were studied according to a previously described biosensor-based method. Briefly, streptavidin was anchored to a carboxylate surface via EDC/NHS chemistry, and 5′-biotinylated dsDNA oligomer (sequence: 3′-[…]-5′) was coupled to surface-blocked streptavidin. Compounds were independently added to the DNA-coated surface at different concentrations, each time following binding kinetics up to equilibrium. PBS buffer was used for both the dissociation and the regeneration steps. Experimental data were fitted to both mono- and biexponential models, and the validity of each model was assessed by a standard F-test procedure. The binding sites on DNA were mapped according to independent competitive binding assays individually using a minor groove binder (GelRed) and a major groove binder (methyl green), respectively. Briefly, GelRed displacement was monitored by comparing the emission spectra of solutions containing different concentrations of curcuminoid-like ligands/complexes (0–100 μM), 20 μM DNA, and GelRed (10 μM) in 10 mM phosphate buffer, pH 7.4. Similarly, methyl green displacement assay was performed by monitoring the absorbance at 630 nm upon addition of candidate competitors (0–100 μM), 100 μM DNA, and methyl green (10 μM) in 50 mM Tris–HCl buffer and 7.5 mM MgSO4, pH 7.5.

p62 = assay: Western blot quantification of p62 in MCF7 cells; type: cell-based, human; settings: 10 μM, 24 h
Method: Since no significant correlation emerged among cytotoxicity, DNA binding affinity, and proteasome inhibition, the effects of the treatment on the expression levels of p62 were evaluated. p62 is a multifunctional binding protein that is involved in signaling pathways of many cellular activities, including autophagy, whose abnormal expression is associated with malignancies, breast cancer in particular. […] This effect was more evident for the free ligand, in agreement with its higher cytotoxicity to breast cancer cells compared with that of the corresponding ruthenium complex (Figure ).
4 Representative autoradiographs (upper panel) and densitometric analyses (lower panel) of p62 levels in MCF7 cells treated with 10 μM of HZPbdcurc and [3]-Cl for 24 h (*p < 0.01 compared with the control; #p < 0.01 compared with [3]-Cl).
Semiquantitative analysis of p62 was performed by Western blotting upon individual 24 h treatments of MCF-7 cells with 10 μM of HZPbdcurc or [Ru(p-cym)(HZPbdcurc)-Cl]-Cl. Treated cells were lysed, and 15 μg of total protein was electrophoresed on 12% SDS-PAGE, then protein bands were electroblotted onto PVDF membranes (Millipore–Milan, Italy). After incubation with anti-p62 monoclonal antibody (Merck Sigma–Milan, Italy), the bands were immunodetected on a ChemiDoc MP imaging system (Bio-Rad - Milan, Italy). […] Western blot results were analyzed using Fiji software.

[9] = target: 20S proteasome PGPH (caspase-like) activity (Homo sapiens, UniProt P28072); assay: Isolated 20S proteasome, peptidyl glutamyl peptide hydrolase (caspase-like) activity (Z-Leu-Leu-Glu-AMC); type: biochemical; settings: 0–100 μM, 1 h, 37 °C, pH 8.0
Method: as §3, §4

[10] = target: 20S proteasome chymotrypsin-like activity (Homo sapiens, UniProt P28074); assay: Isolated 20S proteasome, chymotrypsin-like activity (Suc-Leu-Leu-Val-Tyr-AMC); type: biochemical; settings: 0–100 μM, 1 h, 37 °C, pH 8.0
Method: as §3, §4

[11] = Solubility in water (qualitative); type: physicochemical

KD [1] [µM] | IC50 [7] [µM] | kass (dsDNA oligomer) [M^–1s^–1] | kdiss (dsDNA oligomer) [s^–1] | Kd (dsDNA oligomer) [µM] | IC50 [9] [µM] | IC50 [10] [µM] | solubility in water [11] | Compound | IC50 [2] [µM] | IC50 [3] [µM] | IC50 [4] [µM] | IC50 [5] [µM] | IC50 [6] [µM] | SI A2780 HEK293T [6] | other results
4.5 ± 2.7 | – | – | – | – | – | – | – | COc1cc(/C=C/c2cc(/C=C/c3ccc(O)c(OC)c3)n(-c3ccccn3)n2)ccc1O | – | – | – | – | – | – | –
4.2 ± 1.8 | – | – | – | – | – | – | – | COc1cc(/C=C/c2cc(/C=C/c3ccc(O)c(OC)c3)n(-c3ccccn3)n2)ccc1O.Cc1ccc(C(C)C)cc1.[Cl-].[Os+2] | – | – | – | – | – | – | –
0.29 ± 0.14 | – | – | – | – | – | – | – | COc1cc(/C=C/c2cc(/C=C/c3ccc(O)c(OC)c3)n(-c3ccccn3)n2)ccc1O.Cc1ccc(C(C)C)cc1.[Cl-].[Ru+2] | – | – | – | – | – | – | –
39.2 ± 17.0 | – | – | – | – | – | – | – | Cc1ccc(C(C)C)cc1.Oc1ccc(/C=C/c2cc(/C=C/c3ccc(O)cc3)n(-c3ccccn3)n2)cc1.[Cl-].[Os+2] | – | – | – | – | – | – | –
2.2 ± 1.5 | – | – | – | – | – | – | – | Cc1ccc(C(C)C)cc1.Oc1ccc(/C=C/c2cc(/C=C/c3ccc(O)cc3)n(-c3ccccn3)n2)cc1.[Cl-].[Ru+2] | – | – | – | – | – | – | –
17.0 ± 7.3 | – | – | – | – | – | – | – | Oc1ccc(/C=C/c2cc(/C=C/c3ccc(O)cc3)n(-c3ccccn3)n2)cc1 | – | – | – | – | – | – | –
– | – | – | – | – | – | – | – | N.N.[Cl][Pt][Cl] [Cisplatin, reference compound] | 7 ± 1 | 2.8 ± 0.5 | 4.2 ± 2.3 | 49.1 ± 7 | 0.25 ± 0.02 | – | –
– | > 100 | 1808 ± 740 | 0.031 ± 0.004 | 17 ± 7.3 | > 100 | > 100 | – | Oc1ccc(/C=C/c2cc(/C=C/c3ccc(O)cc3)n(-c3ccccn3)n2)cc1 [HZPbdcurc, 4,4′-((1E,1′E)-(1-(pyridin-2-yl)-1H-pyrazole-3,5-diyl)bis(ethene-2,1-diyl))diphenol] | – | – | – | – | – | 2.13 | IC50 ([2]; Homo sapiens, A2780cis): 11.1 ± 2.9 µM; IC50 ([8]; Homo sapiens, MCF-10A): 9.7 ± 6.5 µM; p62 levels (p62): an increase in the levels of p62 was observed; IC50 ([3]; Homo sapiens, HEK-293T): 17 ± 0.9 µM; IC50 ([4]; Homo sapiens, MCF7): 35.1 ± 3 µM; SI MCF7 MCF10A [4]: 0.28; IC50 ([5]; Homo sapiens): 25.9 ± 11 µM; IC50 ([6]; Homo sapiens, A2780): 8 ± 1.2 µM
– | > 100 | 2994 ± 1142 | 0.013 ± 0.009 | 4.5 ± 2.7 | > 100 | > 100 | insoluble in H2O | COc1cc(/C=C/c2cc(/C=C/c3ccc(O)c(OC)c3)n(-c3ccccn3)n2)ccc1O [HZPcurc, 4,4′-((1E,1′E)-(1-(pyridin-2-yl)-1H-pyrazole-3,5-diyl)bis(ethene-2,1-diyl))bis(2-methoxyphenol)] | – | – | – | – | – | 3.10 | IC50 ([2]; Homo sapiens, A2780cis): 6.7 ± 0.6 µM; IC50 ([8]; Homo sapiens, MCF-10A): 7 ± 4.5 µM; IC50 ([3]; Homo sapiens, HEK-293T): 16.4 ± 0.6 µM; IC50 ([4]; Homo sapiens, MCF7): 23 ± 6 µM; SI MCF7 MCF10A [4]: 0.30; IC50 ([5]; Homo sapiens): 17.7 ± 3.6 µM; IC50 ([6]; Homo sapiens, A2780): 5.3 ± 0.4 µM
– | 63 ± 7 | 32082 ± 773 | 0.009 ± 0.004 | 0.29 ± 0.14 | > 100 | > 100 | soluble in polar solvents, including H2O | COc1cc(/C=C/c2cc(/C=C/c3ccc(O)c(OC)c3)n(-c3ccccn3)n2)ccc1O.Cc1ccc(C(C)C)cc1.[Cl-].[Cl][Ru+] [[1]Cl, [Ru(p-cym)(HZPcurc)Cl]Cl] | 6.6 ± 0.9 | 25 ± 1 | 49.2 ± 5 | 41 ± 10 | 4.6 ± 0.3 | 5.43 | inhibition of the trypsin-like activity (in words) [7]: inhibition of the trypsin-like activity; IC50 [8]: 31.7 ± 10 µM; SI MCF7 MCF10A [4]: 0.64
– | 51 ± 13 | 1156 ± 179 | 0.005 ± 0.002 | 4.2 ± 1.8 | > 100 | 84 ± 60 | completely soluble | COc1cc(/C=C/c2cc(/C=C/c3ccc(O)c(OC)c3)n(-c3ccccn3)n2)ccc1O.Cc1ccc(C(C)C)cc1.[Cl-].[Cl][Os+] [[2]Cl, [Os(p-cym)(HZPcurc)Cl]Cl] | 12.1 ± 0.6 | 25 ± 8 | > 100 | > 100 | 6.3 ± 0.5 | 3.97 | inhibition of the trypsin-like activity (in words) [7]: inhibition of the trypsin-like activity; IC50 [8]: 25.6 ± 15 µM
– | 61 ± 44 | 266 ± 102 | 0.010 ± 0.002 | 39.2 ± 17 | > 100 | 98 ± 50 | partly soluble in H2O | Cc1ccc(C(C)C)cc1.Oc1ccc(/C=C/c2cc(/C=C/c3ccc(O)cc3)n(-c3ccccn3)n2)cc1.[Cl-].[Cl][Os+] [[4]Cl, [Os(p-cym)(HZPbdcurc)Cl]Cl] | 5.4 ± 0.3 | 32 ± 2 | > 100 | > 100 | 2.4 ± 0.4 | 13.33 | inhibition of the trypsin-like activity (in words) [7]: inhibition of the trypsin-like activity; IC50 [8]: 25.8 ± 10 µM
